Source: patent publication US4271161A, “Indane-acetic acid aminoesters, their preparation and their use in therapy” (Hexachimie, priority 1978, dated 1981)

Experiments:
[1] = test system: pain reactions (abdominal writhing) induced by phenylbenzoquinone; experiment: phenylbenzoquinone-induced writhing in mice (analgesic action); type: in vivo, male mice (SPF, strain OF1); details: for percentage inhibition of pain reactions (abdominal writhing): phenylbenzoquinone i.p. after one hour; for ED50: Mus musculus, po, inhibition of phenylbenzoquinone writhing
Experimental: The products being tested are administered orally (p.o.) to batches of 12 male mice (SPF, strain OF1), weighing 19-20 g. After one hour, 0.3 ml/mouse of a 0.02% strength solution of phenylbenzoquinone is injected intraperitoneally and the number of pain reactions (abdominal writhing) is counted from the 5th to the 10th minute after the latter treatment. The table below gives the percentage inhibition of these reactions.

mice = experiment: toxicity: mortality after intraperitoneal administration in mice; type: in vivo
Excerpt: In mice, no mortality was observed after intraperitoneal administration up to doses of: […]

| Compound | percentage inhibition of pain reactions (abdominal writhing) ([1]; 1 mg.kg^-1 p.o.) [%] | percentage inhibition of pain reactions (abdominal writhing) ([1]; 2 mg.kg^-1 p.o.) [%] | percentage inhibition of pain reactions (abdominal writhing) ([1]; 4 mg.kg^-1 p.o.) [%] | percentage inhibition of pain reactions (abdominal writhing) ([1]; 8 mg.kg^-1 p.o.) [%] | percentage inhibition of pain reactions (abdominal writhing) ([1]; 16 mg.kg^-1 p.o.) [%] | percentage inhibition of pain reactions (abdominal writhing) ([1]; 32 mg.kg^-1 p.o.) [%] | ED50 [1] [mg/kg] | dose up to which no mortality was observed (mice) [mg/kg] | percentage inhibition of pain reactions (abdominal writhing) ([1]; 64 mg.kg^-1 p.o.) [%] | percentage inhibition of pain reactions (abdominal writhing) ([1]; 128 mg.kg^-1 p.o.) [%] |
| --- | --- | --- | --- | --- | --- | --- | --- | --- | --- | --- |
| CCC1Cc2ccc(C(C)C(=O)OCCN3CCN(c4cccc(C(F)(F)F)c4)CC3)cc2C1 (stereo not drawn) [2 or 5] | 22 | 47 | 59 | 64 | 65 | 82 | 4 | 512 | – | – |
| CC(C(=O)OCCN1CCN(c2cccc(C(F)(F)F)c2)CC1)c1ccc2c(c1)CC(C(C)C)C2 (stereo not drawn) [4 or 6] | – | – | – | 23 | 40 | 67 | 25 | 256 | 75 | 75 |
